In the supplement of paper PMC10307832:

What was measured:
Experiment in all cases: relative viability (nuclei count vs DMSO), 5 days (fraction); higher = more cells survive
NCI-H1734 = system: NCI-H1734
Outline: (§1)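 After 5 days of treatment, lung cancer cells in 1536-well plates were fixed and stained in a single step (final 0.05% Triton X-100, 1% formaldehyde, 1 ug/ml Hoechst) and their nuclei counted on 4× images. Treatment had been applied by pin tool the day after seeding as one drug alone or as a fixed anchor-drug dose with five library-drug doses (not always all listed) in √10 steps. Relative viability is the nuclei count of treated wells divided by that of vehicle wells, and values are medians of duplicate plates.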

NCI-H2342 = system: NCI-H2342
Outline: as §1

NCI-H1793 = system: NCI-H1793
Outline: as §1

HOP-62 = system: HOP-62
Outline: as §1

NCI-H2347 = system: NCI-H2347
Outline: as §1

NCI-H647 = system: NCI-H647
Outline: as §1

EKVX = system: EKVX
Outline: as §1

SK-MES-1 = system: SK-MES-1
Outline: as §1

NCI-H1355 = system: NCI-H1355
Outline: as §1

NCI-H838 = system: NCI-H838
Outline: as §1

COR-L 105 = system: COR-L 105
Outline: as §1

NCI-H1993 = system: NCI-H1993
Outline: as §1

COR-L23 = system: COR-L23
Outline: as §1

UMC-11 = system: UMC-11
Outline: as §1

PC-14 = system: PC-14
Outline: as §1

NCI-H1395 = system: NCI-H1395
Outline: as §1

NCI-H2228 = system: NCI-H2228
Outline: as §1

NCI-H1755 = system: NCI-H1755
Outline: as §1

NCI-H2170 = system: NCI-H2170
Outline: as §1

HCC-15 = system: HCC-15
Outline: as §1

NCI-H2009 = system: NCI-H2009
Outline: as §1

HARA = system: HARA
Outline: as §1

NCI-H358 = system: NCI-H358
Outline: as §1

Question: `NC(=O)Nc1cc(-c2cccc(F)c2)sc1C(=O)N[C@H]1CCCNC1` [AZD7762] + Cc1nc(Nc2ncc(C(=O)Nc3c(C)cccc3Cl)s2)cc(N2CCN(CCO)CC2)n1 [Dasatinib] (partner 0.075 µM) was tested. Which relative viability (NCI-H1734; first compound 0.01 µM) did it give?
Answer: 0.537

Question: What about the relative viability (NCI-H1734; first compound 0.03162 µM) of the same compound?
Answer: 0.542

Question: What about the relative viability (NCI-H1734; first compound 0.1 µM) of the same compound?
Answer: 0.493

Question: What about the relative viability (NCI-H1734; first compound 0.3162 µM) of the same compound?
Answer: 0.394

Question: What about the relative viability (NCI-H1734; first compound 1 µM) of the same compound?
Answer: 0.35

Question: What about the relative viability (NCI-H2342; first compound 0.01 µM) of the same compound?
Answer: 0.326

Question: And the relative viability (NCI-H2342; first compound 0.03162 µM)?
Answer: 0.344

Question: And the relative viability (NCI-H2342; first compound 0.1 µM)?
Answer: 0.33

Question: What about the relative viability (NCI-H2342; first compound 0.3162 µM) of the same compound?
Answer: 0.309

Question: And the relative viability (NCI-H2342; first compound 1 µM)?
Answer: 0.31

Question: And the relative viability (NCI-H1793; first compound 0.01 µM)?
Answer: 0.408

Question: And the relative viability (NCI-H1793; first compound 0.03162 µM)?
Answer: 0.388

Question: What about the relative viability (NCI-H1793; first compound 0.1 µM) of the same compound?
Answer: 0.426

Question: And the relative viability (NCI-H1793; first compound 0.3162 µM)?
Answer: 0.482

Question: What about the relative viability (NCI-H1793; first compound 1 µM) of the same compound?
Answer: 0.276

Question: What about the relative viability (HOP-62; first compound 0.01 µM) of the same compound?
Answer: 0.727

Question: What about the relative viability (HOP-62; first compound 0.03162 µM) of the same compound?
Answer: 0.72

Question: What about the relative viability (HOP-62; first compound 0.1 µM) of the same compound?
Answer: 0.682

Question: What about the relative viability (HOP-62; first compound 0.3162 µM) of the same compound?
Answer: 0.623

Question: What about the relative viability (HOP-62; first compound 1 µM) of the same compound?
Answer: 0.341

Question: What about the relative viability (NCI-H2347; first compound 0.01 µM) of the same compound?
Answer: 0.36

Question: And the relative viability (NCI-H2347; first compound 0.03162 µM)?
Answer: 0.306

Question: And the relative viability (NCI-H2347; first compound 0.1 µM)?
Answer: 0.346

Question: And the relative viability (NCI-H2347; first compound 0.3162 µM)?
Answer: 0.35

Question: What about the relative viability (NCI-H2347; first compound 1 µM) of the same compound?
Answer: 0.253

Question: And the relative viability (NCI-H647; first compound 0.01 µM)?
Answer: 0.214

Question: What about the relative viability (NCI-H647; first compound 0.03162 µM) of the same compound?
Answer: 0.184

Question: And the relative viability (NCI-H647; first compound 0.1 µM)?
Answer: 0.197

Question: What about the relative viability (NCI-H647; first compound 0.3162 µM) of the same compound?
Answer: 0.143

Question: And the relative viability (NCI-H647; first compound 1 µM)?
Answer: 0.0925

Question: What about the relative viability (EKVX; first compound 0.01 µM) of the same compound?
Answer: 0.623

Question: What about the relative viability (EKVX; first compound 0.03162 µM) of the same compound?
Answer: 0.615

Question: And the relative viability (EKVX; first compound 0.1 µM)?
Answer: 0.337

Question: What about the relative viability (EKVX; first compound 0.3162 µM) of the same compound?
Answer: 0.543

Question: And the relative viability (EKVX; first compound 1 µM)?
Answer: 0.521

Question: And the relative viability (SK-MES-1; first compound 0.01 µM)?
Answer: 0.413

Question: What about the relative viability (SK-MES-1; first compound 0.03162 µM) of the same compound?
Answer: 0.468

Question: And the relative viability (SK-MES-1; first compound 0.1 µM)?
Answer: 0.302

Question: What about the relative viability (SK-MES-1; first compound 0.3162 µM) of the same compound?
Answer: 0.131

Question: And the relative viability (SK-MES-1; first compound 1 µM)?
Answer: 0.117

Question: And the relative viability (NCI-H1355; first compound 0.01 µM)?
Answer: 0.668

Question: And the relative viability (NCI-H1355; first compound 0.03162 µM)?
Answer: 0.849

Question: What about the relative viability (NCI-H1355; first compound 0.1 µM) of the same compound?
Answer: 0.739

Question: And the relative viability (NCI-H1355; first compound 0.3162 µM)?
Answer: 0.681

Question: And the relative viability (NCI-H1355; first compound 1 µM)?
Answer: 0.506

Question: And the relative viability (NCI-H838; first compound 0.01 µM)?
Answer: 0.322

Question: What about the relative viability (NCI-H838; first compound 0.03162 µM) of the same compound?
Answer: 0.276

Question: What about the relative viability (NCI-H838; first compound 0.1 µM) of the same compound?
Answer: 0.258

Question: And the relative viability (NCI-H838; first compound 0.3162 µM)?
Answer: 0.251

Question: What about the relative viability (NCI-H838; first compound 1 µM) of the same compound?
Answer: 0.24

Question: What about the relative viability (COR-L 105; first compound 0.01 µM) of the same compound?
Answer: 0.324

Question: What about the relative viability (COR-L 105; first compound 0.03162 µM) of the same compound?
Answer: 0.342

Question: And the relative viability (COR-L 105; first compound 0.1 µM)?
Answer: 0.324

Question: And the relative viability (COR-L 105; first compound 0.3162 µM)?
Answer: 0.251

Question: And the relative viability (COR-L 105; first compound 1 µM)?
Answer: 0.239

Question: And the relative viability (NCI-H1993; first compound 0.01 µM)?
Answer: 0.629

Question: What about the relative viability (NCI-H1993; first compound 0.03162 µM) of the same compound?
Answer: 0.599

Question: And the relative viability (NCI-H1993; first compound 0.1 µM)?
Answer: 0.481

Question: And the relative viability (NCI-H1993; first compound 0.3162 µM)?
Answer: 0.574

Question: And the relative viability (NCI-H1993; first compound 1 µM)?
Answer: 0.588

Question: What about the relative viability (COR-L23; first compound 0.01 µM) of the same compound?
Answer: 0.477

Question: What about the relative viability (COR-L23; first compound 0.03162 µM) of the same compound?
Answer: 0.528

Question: And the relative viability (COR-L23; first compound 0.1 µM)?
Answer: 0.515

Question: And the relative viability (COR-L23; first compound 0.3162 µM)?
Answer: 0.313

Question: And the relative viability (COR-L23; first compound 1 µM)?
Answer: 0.0945

Question: What about the relative viability (UMC-11; first compound 0.01 µM) of the same compound?
Answer: 0.516

Question: What about the relative viability (UMC-11; first compound 0.03162 µM) of the same compound?
Answer: 0.447

Question: What about the relative viability (UMC-11; first compound 0.1 µM) of the same compound?
Answer: 0.407

Question: What about the relative viability (UMC-11; first compound 0.3162 µM) of the same compound?
Answer: 0.392

Question: What about the relative viability (UMC-11; first compound 1 µM) of the same compound?
Answer: 0.215

Question: And the relative viability (PC-14; first compound 0.01 µM)?
Answer: 0.281

Question: What about the relative viability (PC-14; first compound 0.03162 µM) of the same compound?
Answer: 0.254

Question: What about the relative viability (PC-14; first compound 0.1 µM) of the same compound?
Answer: 0.211

Question: And the relative viability (PC-14; first compound 0.3162 µM)?
Answer: 0.0804

Question: What about the relative viability (PC-14; first compound 1 µM) of the same compound?
Answer: 0.0213

Question: And the relative viability (NCI-H1395; first compound 0.01 µM)?
Answer: 0.449

Question: And the relative viability (NCI-H1395; first compound 0.03162 µM)?
Answer: 0.424

Question: What about the relative viability (NCI-H1395; first compound 0.1 µM) of the same compound?
Answer: 0.427

Question: What about the relative viability (NCI-H1395; first compound 0.3162 µM) of the same compound?
Answer: 0.371

Question: And the relative viability (NCI-H1395; first compound 1 µM)?
Answer: 0.302

Question: What about the relative viability (NCI-H2228; first compound 0.01 µM) of the same compound?
Answer: 0.67

Question: What about the relative viability (NCI-H2228; first compound 0.03162 µM) of the same compound?
Answer: 0.606

Question: And the relative viability (NCI-H2228; first compound 0.1 µM)?
Answer: 0.373

Question: And the relative viability (NCI-H2228; first compound 0.3162 µM)?
Answer: 0.204

Question: And the relative viability (NCI-H2228; first compound 1 µM)?
Answer: 0.125

Question: And the relative viability (NCI-H1755; first compound 0.01 µM)?
Answer: 0.276

Question: What about the relative viability (NCI-H1755; first compound 0.03162 µM) of the same compound?
Answer: 0.428

Question: And the relative viability (NCI-H1755; first compound 0.1 µM)?
Answer: 0.416

Question: What about the relative viability (NCI-H1755; first compound 0.3162 µM) of the same compound?
Answer: 0.325

Question: What about the relative viability (NCI-H1755; first compound 1 µM) of the same compound?
Answer: 0.215

Question: And the relative viability (NCI-H2170; first compound 0.01 µM)?
Answer: 0.602

Question: What about the relative viability (NCI-H2170; first compound 0.03162 µM) of the same compound?
Answer: 0.584

Question: What about the relative viability (NCI-H2170; first compound 0.1 µM) of the same compound?
Answer: 0.507

Question: And the relative viability (NCI-H2170; first compound 0.3162 µM)?
Answer: 0.529

Question: And the relative viability (NCI-H2170; first compound 1 µM)?
Answer: 0.401

Question: And the relative viability (HCC-15; first compound 0.01 µM)?
Answer: 0.582

Question: And the relative viability (HCC-15; first compound 0.03162 µM)?
Answer: 0.592

Question: And the relative viability (HCC-15; first compound 0.1 µM)?
Answer: 0.592

Question: And the relative viability (HCC-15; first compound 0.3162 µM)?
Answer: 0.561

Question: What about the relative viability (HCC-15; first compound 1 µM) of the same compound?
Answer: 0.52

Question: And the relative viability (NCI-H2009; first compound 0.01 µM)?
Answer: 0.334

Question: And the relative viability (NCI-H2009; first compound 0.03162 µM)?
Answer: 0.287

Question: And the relative viability (NCI-H2009; first compound 0.1 µM)?
Answer: 0.342

Question: What about the relative viability (NCI-H2009; first compound 0.3162 µM) of the same compound?
Answer: 0.282

Question: What about the relative viability (NCI-H2009; first compound 1 µM) of the same compound?
Answer: 0.181

Question: And the relative viability (HARA; first compound 0.01 µM)?
Answer: 0.306

Question: And the relative viability (HARA; first compound 0.03162 µM)?
Answer: 0.304

Question: What about the relative viability (HARA; first compound 0.1 µM) of the same compound?
Answer: 0.275

Question: And the relative viability (HARA; first compound 0.3162 µM)?
Answer: 0.286

Question: What about the relative viability (HARA; first compound 1 µM) of the same compound?
Answer: 0.164

Question: What about the relative viability (NCI-H358; first compound 0.01 µM) of the same compound?
Answer: 0.151

Question: What about the relative viability (NCI-H358; first compound 0.03162 µM) of the same compound?
Answer: 0.182

Question: And the relative viability (NCI-H358; first compound 0.1 µM)?
Answer: 0.188

Question: And the relative viability (NCI-H358; first compound 0.3162 µM)?
Answer: 0.167

Question: What about the relative viability (NCI-H358; first compound 1 µM) of the same compound?
Answer: 0.17
